Measured values published in patent publication US6900202B2, “Di-substituted imineheterocyclic compounds” (priority 2000, dated 2005).

Molecular target: T1, α1β1γδ subtype of nicotinic acetylcholine receptors (Rattus norvegicus, UniProt P25108)
T1 construct: The centrifugation at 100,000×G for 60 minutes at 4° C. yielded the rat muscle extract as supernatant
Assay: biochemical
Type: binding
Conditions: % of control binding remaining

T1 sequence (P25108 21-457): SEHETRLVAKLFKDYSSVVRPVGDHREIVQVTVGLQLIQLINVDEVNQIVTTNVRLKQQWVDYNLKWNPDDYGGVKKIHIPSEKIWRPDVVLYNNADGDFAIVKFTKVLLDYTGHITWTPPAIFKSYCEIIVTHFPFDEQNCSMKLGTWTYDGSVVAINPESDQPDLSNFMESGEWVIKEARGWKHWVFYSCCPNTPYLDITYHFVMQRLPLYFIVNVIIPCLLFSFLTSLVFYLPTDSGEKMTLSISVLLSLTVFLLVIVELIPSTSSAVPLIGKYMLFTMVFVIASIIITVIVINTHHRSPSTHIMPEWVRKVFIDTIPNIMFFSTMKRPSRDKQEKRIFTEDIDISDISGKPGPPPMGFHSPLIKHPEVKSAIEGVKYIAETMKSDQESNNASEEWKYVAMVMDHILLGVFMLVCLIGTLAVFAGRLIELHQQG
T1 sequence (P25109 24-501, further chain): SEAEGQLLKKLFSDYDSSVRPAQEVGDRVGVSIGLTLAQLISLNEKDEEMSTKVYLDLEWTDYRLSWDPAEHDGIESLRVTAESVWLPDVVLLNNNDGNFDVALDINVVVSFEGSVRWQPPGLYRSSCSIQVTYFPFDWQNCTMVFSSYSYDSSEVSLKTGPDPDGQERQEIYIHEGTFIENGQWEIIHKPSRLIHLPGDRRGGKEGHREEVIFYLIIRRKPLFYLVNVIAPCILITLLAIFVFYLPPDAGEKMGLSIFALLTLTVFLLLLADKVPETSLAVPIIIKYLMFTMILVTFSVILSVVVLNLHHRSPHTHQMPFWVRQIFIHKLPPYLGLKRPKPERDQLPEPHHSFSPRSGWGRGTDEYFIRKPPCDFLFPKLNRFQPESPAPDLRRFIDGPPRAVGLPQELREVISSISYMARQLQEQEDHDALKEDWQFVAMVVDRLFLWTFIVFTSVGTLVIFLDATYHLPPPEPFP
T1 sequence (P25110 22-517, further chain): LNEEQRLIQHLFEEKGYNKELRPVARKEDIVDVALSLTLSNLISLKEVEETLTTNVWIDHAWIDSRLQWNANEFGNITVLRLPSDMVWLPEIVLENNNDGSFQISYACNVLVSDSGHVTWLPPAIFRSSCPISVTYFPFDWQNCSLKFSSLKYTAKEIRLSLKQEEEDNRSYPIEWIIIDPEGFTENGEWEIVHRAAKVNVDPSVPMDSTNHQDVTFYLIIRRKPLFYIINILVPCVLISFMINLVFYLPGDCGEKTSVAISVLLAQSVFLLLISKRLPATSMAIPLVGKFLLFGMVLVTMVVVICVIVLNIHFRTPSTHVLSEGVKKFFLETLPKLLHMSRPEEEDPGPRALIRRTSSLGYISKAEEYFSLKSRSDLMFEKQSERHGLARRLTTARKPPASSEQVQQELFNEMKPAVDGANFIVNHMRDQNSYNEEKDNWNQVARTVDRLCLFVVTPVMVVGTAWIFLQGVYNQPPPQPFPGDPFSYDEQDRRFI

Compound: Clc1ccc(C/N=C2\OCCCN2Cc2ccc(Cl)nc2)cn1 [Compound 2, 3-(6-chloro-3-pyridyl)methyl-2-[(6-chloro-3-pyridyl)-methyl]imino-3,4,5,6-tetrahydro-2H-1,3-oxazine]
- control % of [3H]-α-Bgt binding at 100 μM of test compound (100 μM test compound): 95%
- control % of [3H]-α-Bgt binding at 1,000 μM of test compound (1,000 μM test compound): 56%
